Measurements as given in patent US11840528B2 (Hoffmann-La Roche Inc., priority 2018, dated 2023).

Key:
h-GABA-A α5β3γ2 [1] = biological target: T1, h-GABA-A α5β3γ2 (Homo sapiens, UniProt P18507+P31644); test: [3H]flumazenil competition binding assay, membranes of HEK293 cells expressing GABAA receptors
Method: The affinity of compounds at GABAA receptor subtypes was measured by competition for [3H]flumazenil (85 Ci/mmol; Roche) binding to HEK293 cells expressing rat (stably transfected) or human (transiently transfected) receptors of composition α1β3γ2, α2β3γ2, α3β3γ2 and α5β3γ2.
Cell pellets were suspended in Krebs-tris buffer (4.8 mM KCl, 1.2 mM CaCl2), 1.2 mM MgCl2, 120 mM NaCl, 15 mM Tris; pH 7.5; binding assay buffer), homogenized by polytron for ca. 20 sec on ice and centrifuged for 60 min at 4° C. (50000 g; Sorvall, rotor: SM24=20000 rpm). The cell pellets were resuspended in Krebs-tris buffer and homogenized by polytron for ca. 15 sec on ice. Protein was measured (Bradford method, Bio-Rad) and aliquots of 1 mL were prepared and stored at −80° C.
Assays were incubated to equilibrium for 1 hour at 4° C. and harvested onto GF/C uni-filters (Packard) by filtration using a Packard harvester and washing with ice-cold wash buffer (50 mM Tris; pH 7.5). After drying, filter-retained radioactivity was detected by liquid scintillation counting. Ki values were calculated using Excel-Fit (Microsoft) and are the means of two determinations.

h-GABA-A α5β3γ2 [2] = biological target: T1, h-GABA-A α5β3γ2; test: Two-electrode voltage clamp electrophysiology in Xenopus laevis oocytes expressing GABAA receptors, modulation of GABA EC20 current; assay type: cell-based; design: host or cells: Xenopus laevis oocytes micro-injected with RNA transcripts of the subunits
Method: Xenopus laevis oocytes at maturation stages V-VI were used for the expression of cloned mRNA encoding GABAA receptor subunits. Oocytes ready for RNA micro-injection were bought from Ecocyte, Castrop-Rauxel, Germany and stored in modified Barth's medium (composition in mM: NaCl 88, KCl 1, NaHCO32.4, HEPES 10, MgSO4 0.82, CaNO3 0.33, CaCl2 0.33, pH=7.5) at 20° C. until the experiment.
Oocytes were plated in 96-well plates to be used in an automated instrument (Robo-ocyte, MultiChannelSystems, Reutlingen, Germany) for microinjection and electrophysiological recordings. Approximately 50 nl of an aqueous solution containing the RNA transcripts for the subunits of the desired GABAA receptor was injected into each oocyte. RNA concentrations ranged between 0.3 and 16 ng/μl/subunit and were adjusted in pilot experiments to obtain GABA responses of a suitable size and a maximal effect of the reference modulator, Beta-CCM (β-CCM), a betacarboline negative allosteric modulator (NAM) at the GABAA receptor benzodiazepine (BZD) binding site or Midazolam, a benzodiazepine positive allosteric modulator (PAM) at the GABAA receptor benzodiazepine (BZD) binding site. The concentration of the γ2 subunit encoding RNA usually was 5- to 10-fold higher than the RNAs encoding the other subunits. Oocytes were kept in modified Barth's medium (composition in mM: NaCl 88, KCl 1, NaHCO3 4, HEPES 10, MgSO4 0.82, CaNO3 0.33, CaCl2) 0.33, pH=7.5) at 20° C. until the experiment.
Electrophysiological experiments were performed on days 3 to 5 after the micro-injection of mRNA. During the experiment the oocytes were constantly superfused by a solution containing (in mM) NaCl 90, KCl 1, HEPES 5, MgCl2 1, CaCl2) 1 (pH 7.4). Oocytes were impaled by two glass microelectrodes (resistance: 0.4 MΩ) which were filled with a solution containing KCl 1M+K-acetate 1.5 M and voltage-clamped to −80 mV. The recordings were performed at room temperature using the Roboocyte two-electrode voltage clamp system (Multichannelsystem). After an initial equilibration period of 1.5 min GABA was added for 1.5 min at a concentration evoking approximately 20% of a maximal current response (EC20). After another rest interval of 2.5 min GABA was again added evoking a response of similar amplitude and shape. 0.5 min after the onset of this second GABA application the test compound, at a concentration corresponding to approximatively 30 fold its Ki, was added while GABA was still present. Current traces were recorded at a digitization rate of 10 Hz during and shortly before and after the GABA application.
Each compound and concentration was tested on at least 3 oocytes. Different oocytes were used for different compound concentrations. β-CCM, a negative allosteric modulator, or Midazolam, a positive allosteric modulators, were tested on a few (3-6) oocytes on each 96-well plate for a positive control at a maximally effective. β-CCM inhibited the GABA-evoked current by approximatively 50% (Fold increase ˜0.5), while Midazolam potentiated the GABA-induced current by approximatively 150% (Fold increase ˜2.5).
For the analysis, the digitized current traces of the first and second GABA response were superimposed and, if necessary, rescaled to equal maximal amplitudes. The ratio between the two responses during the time interval of test compound application was calculated point by point. The extremum of the resulting “ratio trace” was taken as the efficacy (“Fold increase”) of the compound expressed as “% modulation of GABA EC20” (100*(Fold increase-1)).

[3] = displacement of [3H]-Flumazenil 0.5 nM, HEK293 cells expressing human receptors, mean of two determinations, Table 1
[4] = % modulation of GABA EC20 = 100*(Fold increase-1), Table 1
[5] = test compound at approx. 30 fold its Ki, GABA at EC20, Table 1

Row | Structure (SMILES) | Ki (h-GABA-A α5β3γ2 [1]; [3]) | Efficacy (GABA) % (h-GABA-A α5β3γ2 [2]; [4]) | Fold increase h-GABA-A α5β3γ2 oocyte (h-GABA-A α5β3γ2 [2]; [5]) | Ki (h-GABA-A α5β3γ2 [1]; reference compounds, Table 2) | Efficacy (GABA) % (h-GABA-A α5β3γ2 [2]; reference compounds, % modulation of GABA EC20, Table 2) | Fold increase h-GABA-A α5β3γ2 oocyte (h-GABA-A α5β3γ2 [2]; reference compounds, Table 2)
1 | Cc1ccc(-c2noc(C)c2Cn2ncc(-c3ccc(OC(F)F)nc3)cc2=O)cn1 [Example 149, 5-(6-(difluoromethoxy)pyridin-3-yl)-2-((5-methyl-3-(6-methylpyridin-3-yl)isoxazol-4-yl)methyl)pyridazin-3(2H)-one] | 20.2 nM | 89% | 1.89 | – | – | –
2 | Cc1onc(-c2ccc(Cl)nc2)c1Cn1ncc(N2CCC3(CC2)CC(F)CCO3)cc1=O (single isomer, unassigned) [Example 330] | 48.8 nM | 159% | 2.59 | – | – | –
3 | Cc1ccc(-c2noc(C)c2Cn2ncc(N3CC[C@H](C(C)(C)O)C3)cc2=O)cn1 [Example 120, 5-((3S)-3-(2-hydroxypropan-2-yl)pyrrolidin-1-yl)-2-((5-methyl-3-(6-methylpyridin-3-yl)-1,2-oxazol-4-yl)methyl)pyridazin-3-one] | 7.3 nM | 172% | 2.72 | – | – | –
4 | Cc1onc(-c2ccc(Cl)nc2)c1Cn1ncc(N2CC3(C[C@H](F)CO3)C2)cc1=O [Example 232, (S)-2-((3-(6-chloropyridin-3-yl)-5-methylisoxazol-4-yl)methyl)-5-(7-fluoro-5-oxa-2-azaspiro[3.4]octan-2-yl)pyridazin-3(2H)-one] | 37 nM | 104% | 2.04 | – | – | –
5 | Cc1ccc(-c2nocc2Cn2ncc(N3C[C@@H](C)O[C@@H](C)C3)cc2=O)cn1 [Example 32, 5-(cis-2,6-dimethylmorpholin-4-yl)-2-[[3-(6-methyl-3-pyridyl)isoxazol-4-yl]methyl]pyridazin-3-one] | 12.7 nM | 288% | 3.88 | – | – | –
6 | Cc1ccc(-c2noc(C)c2Cn2ncc(N3CC(O)C3)cc2=O)cn1 [Example 105, 5-(3-hydroxyazetidin-1-yl)-2-[[5-methyl-3-(6-methyl-3-pyridyl)isoxazol-4-yl]methyl]pyridazin-3-one] | 6 nM | 72% | 1.72 | – | – | –
7 | Cc1onc(-c2ccc(Cl)cn2)c1Cn1ncc(N2C[C@@H](C)O[C@@H](C)C2)cc1=O [Example 13, 2-((3-(5-Chloropyridin-2-yl)-5-methylisoxazol-4-yl)methyl)-5-(cis-2,6-dimethylmorpholino)pyridazin-3(2H)-one] | 0.7 nM | 94% | 1.94 | – | – | –
8 | Cc1ccc(-c2noc(C)c2Cn2ncc(N3CC(Oc4ccccn4)C3)cc2=O)cn1 [Example 124, 2-[[5-methyl-3-(6-methyl-3-pyridyl)isoxazol-4-yl]methyl]-5-[3-(2-pyridyloxy)azetidin-1-yl]pyridazin-3-one] | 12 nM | 148% | 2.48 | – | – | –
9 | Cc1onc(-c2ncc(Cl)cc2F)c1Cn1ncc(N2CCN(C(=O)C3(C)CC3)CC2)cc1=O [Example 53, 2-[[3-(5-chloro-3-fluoro-2-pyridyl)-5-methyl-isoxazol-4-yl]methyl]-5-[4-(1-methylcyclopropanecarbonyl)piperazin-1-yl]pyridazin-3-one] | 9.8 nM | 152% | 2.52 | – | – | –
10 | Cc1onc(-c2ccc(Cl)cn2)c1Cn1ncc(N2CCN(C(=O)C3(C)CC3)CC2)cc1=O [Example 16, 2-((3-(5-Chloropyridin-2-yl)-5-methylisoxazol-4-yl)methyl)-5-(4-(1-methylcyclopropanecarbonyl)piperazin-1-yl)pyridazin-3(2H)-one] | 2.6 nM | 139% | 2.39 | – | – | –
11 | Cc1onc(-c2ccc(Cl)nc2)c1Cn1ncc(N2CC(OC(C)C(F)(F)F)C2)cc1=O (single isomer, unassigned) [Example 266] | 35.8 nM | 136% | 2.36 | – | – | –
12 | COc1cc(-c2cnn(Cc3c(-c4cnc(C)c(F)c4)noc3C)c(=O)c2)ccn1 [Example 207, 2-((3-(5-fluoro-6-methylpyridin-3-yl)-5-methylisoxazol-4-yl)methyl)-5-(2-methoxypyridin-4-yl)pyridazin-3(2H)-one] | 14.8 nM | 75% | 1.75 | – | – | –
13 | Cc1ccc(-c2noc(C)c2Cn2ncc(N3CC(Oc4ccccc4F)C3)cc2=O)cn1 [Example 128, 5-[3-(2-fluorophenoxy)azetidin-1-yl]-2-[[5-methyl-3-(6-methyl-3-pyridyl)isoxazol-4-yl]methyl]pyridazin-3-one] | 11.1 nM | 120% | 2.2 | – | – | –
14 | Cc1onc(-c2ccc(Cl)nc2)c1Cn1ncc(N2CC3(C[C@H](C)CCO3)C2)cc1=O [Example 322, (R)-2-((3-(6-chloropyridin-3-yl)-5-methylisoxazol-4-yl)methyl)-5-(8-methyl-5-oxa-2-azaspiro[3.5]nonan-2-yl)pyridazin-3(2H)-one] | 71.1 nM | 73% | 1.73 | – | – | –
15 | Cc1ccc(-c2noc(C)c2Cn2ncc(N3CC(Oc4ccc(Cl)cn4)C3)cc2=O)cn1 [Example 130, 5-[3-[(5-chloro-2-pyridyl)oxy]azetidin-1-yl]-2-[[5-methyl-3-(6-methyl-3-pyridyl)isoxazol-4-yl]methyl]pyridazin-3-one] | 25.1 nM | 187% | 2.87 | – | – | –
16 | Cc1cc(C)n(-c2ccc(OCc3c(-c4ccccc4)noc3C)nn2)n1 [RO-039, reference compound] | – | – | – | 5.15 nM | −17% | 0.83
17 | Cc1ccc(-c2noc(C)c2Cn2ncc(N3CC4(CN(C)C4)C3)cc2=O)cn1 [Example 82, 5-(6-methyl-2,6-diazaspiro[3.3]heptan-2-yl)-2-[[5-methyl-3-(6-methyl-3-pyridyl)isoxazol-4-yl]methyl]pyridazin-3-one] | 32.8 nM | 245% | 3.45 | – | – | –
